Measurements from patent US12036289B2, “Gadolinium bearing PCTA-based contrast agents” (BRACCO IMAGING S.P.A., priority 2018, dated 2024).
Where two headings read alike, the source gives them in different places. Marks after values point to notes of the source that are not given here.

Tests used:
[1] = Acid catalyzed dissociation kinetics of Gadopiclenol (isomeric mixture) and of enantiomers pair C coupled with isoserinol in 1.0 M HCl, followed by HPLC; format: physicochemical; details: 1.0M HCl, 25° C.; fitting of area-time data
Protocol: The average half-life of the obtained conjugated compounds and of Gadopiclenol (isomeric mixture) were calculated considering the decrease of the HPLC total area over time as described in detail in Example 8. For amide derivatives obtained by reaction of RRR/SSS Gd(PCTA-tris-glutaric acid) with i) R-isoserinol; ii)S-isoserinol; and iii) racemic isoserinol the kX pseudo-first-order rate constants and half-lives (t1/2=ln 2/kX) were also calculated by fitting the area—time data pairs as carried out for RRR/SSS Gd(PCTA-tris-glutaric acid) in Example 7.
The HPLC measurements were performed with Thermo Finnigan LCQ DECA XPPlus system according to the analytical Procedure 2.
HPLC chromatogram of Gadopiclenol collected as isomeric mixture from Example 2 is characterized by the presence of 4 major peaks (identified for convenience as A′, B′, C′ and D′) having the same MS and UV-Vis spectra. However, there is only one signal in the HPLC chromatogram of the complex compounds obtained by coupling the enantiomers pair C with isoserinol, whether it is R, S isoserinol or racemic-isoserinol (FIG. 6). Since, as observed, the chirality of the isoserinol pendant has no influence on the retention time of coupled diastereoisomers, the presence of 4 signals in the HPLC chromatograms of Gadopiclenol (isomeric mixture) could be interpreted by the presence of 4 enantiomer pairs formed with the stereocenters of the of the glutaric acid residue: 1) RRR-SSS (Signal D′), 2) RSR-SRS, 3) RRS-SSR and 4) RSS-SRR.
The progress of the reactions was checked by HPLC over time, plotting the area values of the peaks of the complex as a function of time, as above discussed in Example 7 for Gd(PCTA-tris-glutaric acid) isomers.
As expected, the integral values of A′, B′, C′, and D′ decrease over time, whereas the peak of the free ligand increases. […] The half-life of complexes obtained by coupling the enantiomers pair C with R, S and racemic-isoserinol was also calculated from the half of the area values in the HPLC chromatograms.

[2] = Relaxometric properties: longitudinal relaxivity r1; format: physicochemical
Protocol: The relaxometric properties of the PCTA-based complex compounds according to the invention have been measured at different magnetic field strengths, i.e. 0.47 and 1.41 T, at 37° C. and in different media (water and human plasma) and compared with relaxivity values measured, at the same conditions, for Gd-Complex having an analogous coordination cage.
The longitudinal water proton relaxation rate (R1=1/T1) was measured at 0.47 T with a Minispec MQ-20 spectrometer (Bruker Biospin, Germany) operating at a proton Larmor frequency of 20 MHz; MR experiments at 1.41 T were performed using a Minispec MQ-60 spectrometer (Bruker Biospin, Germany) operating at a proton Larmor frequency of 60 MHz.
All test articles were used as supplied and diluted in the selected medium (water or human plasma) by weighting the required amount of paramagnetic chelated complex to get a 5 or 10 mM starting solution.
Five different concentration samples (0.1, 0.25, 0.5, 0.75 and 1 mM) for each medium have been prepared by further dilution of the starting 5 or 10 mM solution.
Relaxivity measurements were performed at 0.47 T and 1.41 T at a preset temperature sample of 37° C., kept constant by means of a thermostatic bath connected to the sample holder of the spectrometer. The five sample solutions have been preliminary pre-heated at 37° C. in an external thermostatic bath and then left 10 minutes inside the internal bath to assure the stabilization of the temperature. Longitudinal relaxation time T1 was measured by means of a standard inversion recovery sequence, where the inversion time (TI) was varied from 10 ms to at least 5 times T1 in 15 steps. Statistical analysis (mono-exponential fitting for T1 measurement, linear fitting for the evaluation of longitudinal relaxivity) was performed by Mathematica® (Wolfram, USA). Errors on the estimated parameters were evaluated by the fitting procedure.

[3] = 1.0M HCl (pH 0), 25° C.; literature value; cited from earlier work
[4] = 1.0M HCl, 25° C.; literature value; cited from earlier work
[5] = pH 0
Protocol: In order to investigate the kinetic inertness of the racemic mixture of the Gd(PCTA-tris-glutaric acid) and, particularly, of the four enantiomer pairs thereof separated by HPLC, we investigated their dissociation reactions taking place under acidic conditions. A large excess of H^+ ([HCl]=1.0 M) was in particular exploited in order to guarantee the pseudo-first order kinetic conditions.
A solution of Gd(PCTA-tris-glutaric acid) (isomeric mixture) in 1 M HCl was prepared and was analysed over the time as explained in Example 7.
In particular, the area value for each of the A, B, C, and D peaks was assessed over the time by HPLC.
The decrease of the integral area values of signals of A, B, C, and D was thus assessed and plotted as a function of the time.
kX pseudo-first-order rate constants (where kX is =kA, kB, kC and kD respectively), characterizing the dissociation rate of the different enantiomer pairs of the Gd(PCTA-tris-glutaric acid) complex and half-lives (t1/2=ln2/kX) were then calculated by fitting the area —time data pairs, as explained in details in Example 7. The average half-life value for the isomeric mixture of Gd(PCTA-tris-glutaric acid) was also obtained, by considering the percentage composition of the mixture. […]

[6] = cited from earlier work
[7] = cited from earlier work; remark: listed apart in the source

Compound: O=C(CCC(C(=O)[O-])N1CCN(C(CCC(=O)NCC(O)CO)C(=O)[O-])Cc2cccc(n2)CN(C(CCC(=O)NCC(O)CO)C(=O)[O-])CC1)NCC(O)CO.[Gd+3] (single isomer, unassigned) [Enantiomers pair C + R-isoserinol]
- kx (s^−1) pseudo-first-order rate constant of acid catalyzed dissociation [1]: (4.9 ± 0.4) × 10^−6 s^−1
- r1 (mM^−1s^−1) H2O, 0.5T, 37° C. [2]: 12.9 ± 0.1 mM⁻¹ s⁻¹
- r1 (mM^−1s^−1) HSA, 1.5T, 37° C. [2]: 14.0 ± 0.3 mM⁻¹ s⁻¹

Compound: O=C(CCC(C(=O)[O-])N1CCN(C(CCC(=O)NCC(O)CO)C(=O)[O-])Cc2cccc(n2)CN(C(CCC(=O)NCC(O)CO)C(=O)[O-])CC1)NCC(O)CO.[Gd+3] (single isomer, unassigned) [Enantiomers pair C + S-isoserinol]
- kx (s^−1) pseudo-first-order rate constant of acid catalyzed dissociation [1]: (4.6 ± 0.3) × 10^−6 s^−1
- r1 (mM^−1s^−1) H2O, 0.5T, 37° C. [2]: 12.9 ± 0.2 mM⁻¹ s⁻¹
- r1 (mM^−1s^−1) HSA, 1.5T, 37° C. [2]: 13.9 ± 0.2 mM⁻¹ s⁻¹

Compound: O=C(CCC(C(=O)[O-])N1CCN(C(CCC(=O)NCC(O)CO)C(=O)[O-])Cc2cccc(n2)CN(C(CCC(=O)NCC(O)CO)C(=O)[O-])CC1)NCC(O)CO.[Gd+3] (single isomer, unassigned) [Enantiomers pair C + racemic-isoserinol]
- kx (s^−1) pseudo-first-order rate constant of acid catalyzed dissociation [1]: (4.5 ± 0.4) × 10^−6 s^−1
- r1 (mM^−1s^−1) H2O, 0.5T, 37° C. [2]: 13.0 ± 0.1 mM⁻¹ s⁻¹
- r1 (mM^−1s^−1) HSA, 1.5T, 37° C. [2]: 14.0 ± 0.2 mM⁻¹ s⁻¹

Compound: O=C([O-])CN1CCN(CC(=O)[O-])CCN(CC(=O)O)CCN(CC(=O)[O-])CC1.[Gd+3] [Dotarem, Gd-DOTA]
- k1 (s^−1) rate constant of acid catalyzed dissociation [3]: 8e-06 s⁻¹
- kx (s^−1) rate constant of acid catalyzed dissociation [4]: 8e-06 s⁻¹

Compound: O=C([O-])CN1CCN(CC(=O)[O-])Cc2cccc(n2)CN(CC(=O)[O-])CC1.[Eu+3] [Eu(PCTA), europium complex of the 3,6,9,15-tetraazabicyclo[9.3.1]pentadeca-1(15),11,13-triene-3,6,9,-triacetic acid]
- k1 (s^−1) rate constant of acid catalyzed dissociation [3]: 0.000508 s⁻¹
- kx (s^−1) rate constant of acid catalyzed dissociation [4]: 0.000508 s⁻¹

Compound: RRR/SSS Gd(PCTA-tris-glutaric acid)
- r1 (mM^−1s^−1) H2O, 0.5T, 37° C. [2]: 9.3 ± 0.1 mM⁻¹ s⁻¹
- r1 (mM^−1s^−1) H2O, 0.5T, 37° C. ([2]; listed as enantiomers pair C): 9.3 ± 0.1 mM⁻¹ s⁻¹
- t1/2 (hour) dissociation half-life (t1/2 = ln2/kx) [5]: 120 ± 3 h

Compound: gadolinium chelate of 2,2′,2″-(3,6,9-triaza-1(2,6)-pyridinacyclodecaphane-3,6,9-triyl)tris(5-((2,3-dihydroxypropyl)amino)-5-oxopentanoic acid) [Gadopiclenol (isomeric mixture)]
- r1 (mM^−1s^−1) H2O, 0.5T, 37° C. ([6]; H2O, 0.5T, 37° C., value reported in EP 1931673): 11* mM^−1s^−1
- r1 (mM^−1s^−1) HSA, 1.5T, 37° C. ([6]; HSA, 1.5T, 37° C., value reported in Invest. Radiol. 2015, 50, 835-842): 12.8 ± 1.3** mM^−1s^−1
- relaxivity ([6]; in human serum (37° C., 1.41 T), Investigative Radiology 2019, Vol 54, (8), 475-484): 12.8 mM⁻¹ s⁻¹
- relaxivity ([6]; in water, at 0.5 T, 37° C., reported in EP1931673): 11 mM^−1s^−1Gd^−1
- stability (log K^term) ([7]; Investigative Radiology 2019, Vol 54, (8), 475-484): 18.7
- thermodynamic equilibrium constant (log K^term) ([7]; reported in EP 2988756): 14.9
